The NIST ThermoML archive (doi:10.1016/j.jct.2006.10.008)
Numbers after ± are expanded uncertainties.

Tests used:
[1] = xn = mol fraction of the nth substance listed; conditions: 298.15 K, 101 kPa, Liquid
[2] = excess molar enthalpy (molar enthalpy of mixing); xn = mol fraction of the nth substance listed; conditions: 298.15 K, 101 kPa, Liquid, Calvet calorimetry

## ClCCCCCCCl [1,6-dichlorohexane] + CCCCOC=O
[1]; x2 = 0.074
  mass density: 1053.56 ± 0.43 kg/m3
[1]; x2 = 0.1444
  mass density: 1043.66 ± 0.41 kg/m3
[1]; x2 = 0.2217
  mass density: 1032.43 ± 0.39 kg/m3
[1]; x2 = 0.2795
  mass density: 1023.76 ± 0.37 kg/m3
[1]; x2 = 0.3441
  mass density: 1013.82 ± 0.35 kg/m3
[1]; x2 = 0.4081
  mass density: 1003.67 ± 0.33 kg/m3
[1]; x2 = 0.5278
  mass density: 983.77 ± 0.34 kg/m3
[1]; x2 = 0.586
  mass density: 973.68 ± 0.35 kg/m3
[1]; x2 = 0.641
  mass density: 963.84 ± 0.37 kg/m3
[1]; x2 = 0.702
  mass density: 952.63 ± 0.38 kg/m3
[1]; x2 = 0.7544
  mass density: 942.71 ± 0.39 kg/m3
[1]; x2 = 0.856
  mass density: 922.68 ± 0.41 kg/m3
[1]; x2 = 0.9056
  mass density: 912.53 ± 0.43 kg/m3
[1]; x2 = 0.9528
  mass density: 902.59 ± 0.44 kg/m3
[2]; x2 = 0.095
  excess molar enthalpy: 0.006 ± 0.000239 kcal/mol
[2]; x2 = 0.1874
  excess molar enthalpy: 0.00985 ± 0.000263 kcal/mol
[2]; x2 = 0.2768
  excess molar enthalpy: 0.0102 ± 0.000263 kcal/mol
[2]; x2 = 0.3583
  excess molar enthalpy: 0.00722 ± 0.000239 kcal/mol
[2]; x2 = 0.4321
  excess molar enthalpy: 0.00131 ± 0.000191 kcal/mol
[2]; x2 = 0.4949
  excess molar enthalpy: -0.00696 ± 0.000239 kcal/mol
[2]; x2 = 0.5195
  excess molar enthalpy: -0.00906 ± 0.000263 kcal/mol
[2]; x2 = 0.5526
  excess molar enthalpy: -0.0129 ± 0.000287 kcal/mol
[2]; x2 = 0.566
  excess molar enthalpy: -0.0141 ± 0.000287 kcal/mol
[2]; x2 = 0.616
  excess molar enthalpy: -0.0186 ± 0.000335 kcal/mol
[2]; x2 = 0.6674
  excess molar enthalpy: -0.0208 ± 0.000359 kcal/mol
[2]; x2 = 0.7246
  excess molar enthalpy: -0.0205 ± 0.000335 kcal/mol
[2]; x2 = 0.7832
  excess molar enthalpy: -0.0183 ± 0.000335 kcal/mol
[2]; x2 = 0.8346
  excess molar enthalpy: -0.0157 ± 0.000311 kcal/mol
[2]; x2 = 0.892
  excess molar enthalpy: -0.0102 ± 0.000263 kcal/mol
[2]; x2 = 0.9474
  excess molar enthalpy: -0.0059 ± 0.000239 kcal/mol
